Assay results from ChEMBL document CHEMBL1201862, “PubChem BioAssay data set” (2004).
Activity calls are given as the source filed them.

Experiments:
Format in all cases: functional
[1] = (§1) Counterscreen for antagonists of the orexin 1 receptor (OX1R; HCRTR1): Fluorescence-based cell-based high throughput dose response assay to identify antagonists of the parental CHO cell line. [Related pubchem assays (depositor defined):AID434989, AID435008, AID463079, AID485270, AID492963, AID492964, AID492965, AID493232, AID504699, AID504701]
Orexin receptor type 2 [2] = target: T1, Orexin receptor type 2 (Homo sapiens, UniProt O43614); assay: Counterscreen assay for antagonists of the orexin 1 receptor (OX1R; HCRTR1): Homogeneous Time Resolved Fluorescence (HTRF)-based cell-based dose response assay for antagonists of the orexin 2 receptor (OX2R; HCRTR2), run by assay provider.
T1 sequence (O43614 whole entry): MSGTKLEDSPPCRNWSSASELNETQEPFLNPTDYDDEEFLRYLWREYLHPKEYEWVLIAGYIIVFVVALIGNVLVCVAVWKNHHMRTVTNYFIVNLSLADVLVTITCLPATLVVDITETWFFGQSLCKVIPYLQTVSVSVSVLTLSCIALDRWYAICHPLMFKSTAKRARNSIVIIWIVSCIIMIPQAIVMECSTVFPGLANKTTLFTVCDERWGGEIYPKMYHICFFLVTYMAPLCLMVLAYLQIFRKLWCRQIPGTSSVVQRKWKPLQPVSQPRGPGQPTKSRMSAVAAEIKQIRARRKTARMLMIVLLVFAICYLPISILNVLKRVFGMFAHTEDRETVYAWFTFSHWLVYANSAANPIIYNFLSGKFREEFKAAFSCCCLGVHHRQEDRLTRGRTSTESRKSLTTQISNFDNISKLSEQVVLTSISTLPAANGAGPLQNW

CHO-K1 = assay: as §1, with “Homogeneous time resolved fluorescence (HTRF)-based” for “Fluorescence-based”, “cell-based” for “cell-based high throughput”, “CHO-K1” for “CHO”; conditions: Cricetulus griseus;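 note: potency for inhibition of ATP-stimulated IP1 production as antagonists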
[3] = target: T2, Orexin/Hypocretin receptor type 1 (Homo sapiens, UniProt O43613); assay: Homogeneous Time Resolved Fluorescence (HTRF)-based cell-based high throughput dose response assay for antagonists of the orexin 1 receptor (OX1R; HCRTR1). [Related pubchem assays (depositor defined):AID434989, AID435008, AID463079, AID485270, AID492963, AID492964, AID492965, AID493232, AID504717, AID504718]
T2 sequence (O43613 whole entry): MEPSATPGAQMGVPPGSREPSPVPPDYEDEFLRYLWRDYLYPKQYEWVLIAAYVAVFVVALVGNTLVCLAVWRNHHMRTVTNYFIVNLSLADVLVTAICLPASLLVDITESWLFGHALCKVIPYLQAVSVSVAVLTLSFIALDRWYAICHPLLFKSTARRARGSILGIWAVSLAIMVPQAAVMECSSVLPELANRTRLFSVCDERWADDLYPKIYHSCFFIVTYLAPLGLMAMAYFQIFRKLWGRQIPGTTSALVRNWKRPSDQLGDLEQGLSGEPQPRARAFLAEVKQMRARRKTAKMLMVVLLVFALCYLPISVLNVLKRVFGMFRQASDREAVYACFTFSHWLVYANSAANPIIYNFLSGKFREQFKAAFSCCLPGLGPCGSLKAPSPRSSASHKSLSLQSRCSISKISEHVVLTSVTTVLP

Orexin receptor type 2 [4] = target: T1, Orexin receptor type 2; assay: Counterscreen assay for antagonists of the orexin 1 receptor (OX1R; HCRTR1): Fluorescence-based cell-based dose response assay for antagonists of the orexin 2 receptor (OX2R; HCRTR2), run by assay provider.
[5] = target: T2, Orexin/Hypocretin receptor type 1; assay: Fluorescence-based cell-based high throughput dose response assay for antagonists of the orexin 1 receptor (OX1R; HCRTR1). [Related pubchem assays (depositor defined):AID434989, AID435008, AID463079, AID485270, AID492963, AID492964, AID492965, AID493232, AID504717, AID504718]
[6] = target: Calcium/calmodulin-dependent protein kinase type II subunit beta (Homo sapiens, UniProt Q13554)
Aurora kinase B = Aurora kinase B (Homo sapiens, UniProt Q96GD4)
Aurora kinase B, sequence (Q96GD4 whole entry): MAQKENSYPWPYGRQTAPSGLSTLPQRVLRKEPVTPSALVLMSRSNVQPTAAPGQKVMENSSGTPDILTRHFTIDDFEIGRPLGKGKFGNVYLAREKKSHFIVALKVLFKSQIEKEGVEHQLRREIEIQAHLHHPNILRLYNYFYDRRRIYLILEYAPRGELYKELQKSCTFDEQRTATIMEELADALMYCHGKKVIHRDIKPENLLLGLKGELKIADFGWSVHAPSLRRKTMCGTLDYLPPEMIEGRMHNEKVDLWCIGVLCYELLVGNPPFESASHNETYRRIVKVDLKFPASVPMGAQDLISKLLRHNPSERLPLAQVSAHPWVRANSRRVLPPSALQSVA

[7] = target: Calcium/calmodulin-dependent protein kinase type II subunit gamma (Homo sapiens, UniProt Q13555)
[8] = target: Calcium/calmodulin-dependent protein kinase type II subunit delta (Homo sapiens, UniProt Q13557)
[9] = target: Receptor-type tyrosine-protein kinase FLT3 (Homo sapiens, UniProt P36888);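 note: FLT3 was tested as one member of a kinome-wide kinase panel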
[10] = target: Serine/threonine-protein kinase TAO1 (Homo sapiens, UniProt Q7L7X3)
SRSF protein kinase 1 = SRSF protein kinase 1 (Homo sapiens, UniProt Q96SB4);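 note: measured as one member of a kinome-wide kinase profiling panel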
[11] = target: Mitogen-activated protein kinase kinase kinase kinase 4 (Homo sapiens, UniProt O95819)
[12] = target: Tyrosine-protein kinase JAK2 (Homo sapiens, UniProt O60674);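 note: JAK2 tested as one member of a kinase panel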
[13] = target: Dual specificity tyrosine-phosphorylation-regulated kinase 1A (Homo sapiens, UniProt Q13627);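 note: measured against DYRK1A as one member of a broad kinome profiling panel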
[14] = target: Tyrosine-protein kinase Lyn (Homo sapiens, UniProt P07948);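 note: lyn as one member of a kinase panel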
[15] = target: MAP/microtubule affinity-regulating kinase 3 (Homo sapiens, UniProt P27448);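 note: MARK3 affinity measured as one member of a kinome panel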
[16] = target: Mitogen-activated protein kinase 13 (Homo sapiens, UniProt O15264)
Mitogen-activated protein kinase 13, sequence (O15264 whole entry): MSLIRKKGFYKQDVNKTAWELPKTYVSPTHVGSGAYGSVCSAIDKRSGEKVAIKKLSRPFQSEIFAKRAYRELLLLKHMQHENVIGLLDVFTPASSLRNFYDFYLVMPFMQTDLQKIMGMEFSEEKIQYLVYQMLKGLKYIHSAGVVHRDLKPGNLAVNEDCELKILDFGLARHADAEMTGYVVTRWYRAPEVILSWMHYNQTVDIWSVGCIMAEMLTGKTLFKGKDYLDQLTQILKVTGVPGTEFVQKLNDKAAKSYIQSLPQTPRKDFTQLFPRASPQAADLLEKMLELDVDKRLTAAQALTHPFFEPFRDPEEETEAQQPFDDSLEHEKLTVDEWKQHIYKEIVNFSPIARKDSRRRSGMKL

[17] = target: Tyrosine-protein kinase ITK/TSK (Homo sapiens, UniProt Q08881);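 note: affinity for ITK measured as one member of a broad kinase panel profiling binding across the kinome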
[18] = target: Tyrosine-protein kinase JAK3 (Homo sapiens, UniProt P52333)
[19] = target: Vascular endothelial growth factor receptor 2 (Homo sapiens, UniProt P35968)
[20] = target: Receptor tyrosine-protein kinase erbB-2 (Homo sapiens, UniProt P04626); assay: Navigating the Kinome. Panel member name: ERBB2
Activin receptor type-1 = Activin receptor type-1 (Homo sapiens, UniProt Q04771); assay: Navigating the Kinome. Panel member name: ACVR1
[21] = target: Fibroblast growth factor receptor 3 (Homo sapiens, UniProt P22607)
[22] = target: Insulin-like growth factor 1 receptor (Homo sapiens, UniProt P08069); assay: Navigating the Kinome. Panel member name: IGF1R
Aurora kinase A = Aurora kinase A (Homo sapiens, UniProt O14965);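 note: value from the Navigating the Kinome kinase panel profiling, panel entry STK6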
[23] = target: Serine/threonine-protein kinase PAK 4 (Homo sapiens, UniProt O96013);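 note: value obtained within a kinome profiling panel in which PAK4 was one of the panel members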
[24] = target: Serine/threonine-protein kinase D2 (Homo sapiens, UniProt Q9BZL6);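 note: measured against PRKD2 as one member of a kinome-wide kinase profiling panel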
Serine/threonine-protein kinase D2, sequence (Q9BZL6 whole entry): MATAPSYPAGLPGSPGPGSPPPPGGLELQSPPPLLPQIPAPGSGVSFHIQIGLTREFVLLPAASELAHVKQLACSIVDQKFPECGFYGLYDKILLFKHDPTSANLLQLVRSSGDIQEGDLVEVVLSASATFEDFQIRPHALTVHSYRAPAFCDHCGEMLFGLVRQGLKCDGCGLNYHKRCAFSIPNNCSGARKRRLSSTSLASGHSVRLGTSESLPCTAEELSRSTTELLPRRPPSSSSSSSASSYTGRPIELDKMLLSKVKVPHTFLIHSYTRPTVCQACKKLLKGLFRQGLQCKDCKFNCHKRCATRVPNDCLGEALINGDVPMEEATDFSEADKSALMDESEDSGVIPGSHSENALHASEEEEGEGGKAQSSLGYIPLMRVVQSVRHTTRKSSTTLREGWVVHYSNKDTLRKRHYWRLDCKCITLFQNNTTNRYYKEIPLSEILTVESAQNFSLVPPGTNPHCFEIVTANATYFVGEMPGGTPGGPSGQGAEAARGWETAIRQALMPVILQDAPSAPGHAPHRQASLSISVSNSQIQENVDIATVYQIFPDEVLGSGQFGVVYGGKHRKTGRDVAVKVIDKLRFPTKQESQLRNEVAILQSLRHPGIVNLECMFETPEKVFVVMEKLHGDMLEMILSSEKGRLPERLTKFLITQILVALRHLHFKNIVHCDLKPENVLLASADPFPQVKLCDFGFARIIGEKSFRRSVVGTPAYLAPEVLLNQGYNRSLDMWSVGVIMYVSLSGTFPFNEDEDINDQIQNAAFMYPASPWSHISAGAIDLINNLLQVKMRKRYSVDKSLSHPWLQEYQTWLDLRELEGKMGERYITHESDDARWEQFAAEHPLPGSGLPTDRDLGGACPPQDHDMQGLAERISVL

[25] = target: Leucine-rich repeat serine/threonine-protein kinase 2 (Homo sapiens, UniProt Q5S007);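 note: value from a broad kinome-wide panel profiling study in which LRRK2 was one of the kinases tested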
Leucine-rich repeat serine/threonine-protein kinase 2, sequence (Q5S007 whole entry): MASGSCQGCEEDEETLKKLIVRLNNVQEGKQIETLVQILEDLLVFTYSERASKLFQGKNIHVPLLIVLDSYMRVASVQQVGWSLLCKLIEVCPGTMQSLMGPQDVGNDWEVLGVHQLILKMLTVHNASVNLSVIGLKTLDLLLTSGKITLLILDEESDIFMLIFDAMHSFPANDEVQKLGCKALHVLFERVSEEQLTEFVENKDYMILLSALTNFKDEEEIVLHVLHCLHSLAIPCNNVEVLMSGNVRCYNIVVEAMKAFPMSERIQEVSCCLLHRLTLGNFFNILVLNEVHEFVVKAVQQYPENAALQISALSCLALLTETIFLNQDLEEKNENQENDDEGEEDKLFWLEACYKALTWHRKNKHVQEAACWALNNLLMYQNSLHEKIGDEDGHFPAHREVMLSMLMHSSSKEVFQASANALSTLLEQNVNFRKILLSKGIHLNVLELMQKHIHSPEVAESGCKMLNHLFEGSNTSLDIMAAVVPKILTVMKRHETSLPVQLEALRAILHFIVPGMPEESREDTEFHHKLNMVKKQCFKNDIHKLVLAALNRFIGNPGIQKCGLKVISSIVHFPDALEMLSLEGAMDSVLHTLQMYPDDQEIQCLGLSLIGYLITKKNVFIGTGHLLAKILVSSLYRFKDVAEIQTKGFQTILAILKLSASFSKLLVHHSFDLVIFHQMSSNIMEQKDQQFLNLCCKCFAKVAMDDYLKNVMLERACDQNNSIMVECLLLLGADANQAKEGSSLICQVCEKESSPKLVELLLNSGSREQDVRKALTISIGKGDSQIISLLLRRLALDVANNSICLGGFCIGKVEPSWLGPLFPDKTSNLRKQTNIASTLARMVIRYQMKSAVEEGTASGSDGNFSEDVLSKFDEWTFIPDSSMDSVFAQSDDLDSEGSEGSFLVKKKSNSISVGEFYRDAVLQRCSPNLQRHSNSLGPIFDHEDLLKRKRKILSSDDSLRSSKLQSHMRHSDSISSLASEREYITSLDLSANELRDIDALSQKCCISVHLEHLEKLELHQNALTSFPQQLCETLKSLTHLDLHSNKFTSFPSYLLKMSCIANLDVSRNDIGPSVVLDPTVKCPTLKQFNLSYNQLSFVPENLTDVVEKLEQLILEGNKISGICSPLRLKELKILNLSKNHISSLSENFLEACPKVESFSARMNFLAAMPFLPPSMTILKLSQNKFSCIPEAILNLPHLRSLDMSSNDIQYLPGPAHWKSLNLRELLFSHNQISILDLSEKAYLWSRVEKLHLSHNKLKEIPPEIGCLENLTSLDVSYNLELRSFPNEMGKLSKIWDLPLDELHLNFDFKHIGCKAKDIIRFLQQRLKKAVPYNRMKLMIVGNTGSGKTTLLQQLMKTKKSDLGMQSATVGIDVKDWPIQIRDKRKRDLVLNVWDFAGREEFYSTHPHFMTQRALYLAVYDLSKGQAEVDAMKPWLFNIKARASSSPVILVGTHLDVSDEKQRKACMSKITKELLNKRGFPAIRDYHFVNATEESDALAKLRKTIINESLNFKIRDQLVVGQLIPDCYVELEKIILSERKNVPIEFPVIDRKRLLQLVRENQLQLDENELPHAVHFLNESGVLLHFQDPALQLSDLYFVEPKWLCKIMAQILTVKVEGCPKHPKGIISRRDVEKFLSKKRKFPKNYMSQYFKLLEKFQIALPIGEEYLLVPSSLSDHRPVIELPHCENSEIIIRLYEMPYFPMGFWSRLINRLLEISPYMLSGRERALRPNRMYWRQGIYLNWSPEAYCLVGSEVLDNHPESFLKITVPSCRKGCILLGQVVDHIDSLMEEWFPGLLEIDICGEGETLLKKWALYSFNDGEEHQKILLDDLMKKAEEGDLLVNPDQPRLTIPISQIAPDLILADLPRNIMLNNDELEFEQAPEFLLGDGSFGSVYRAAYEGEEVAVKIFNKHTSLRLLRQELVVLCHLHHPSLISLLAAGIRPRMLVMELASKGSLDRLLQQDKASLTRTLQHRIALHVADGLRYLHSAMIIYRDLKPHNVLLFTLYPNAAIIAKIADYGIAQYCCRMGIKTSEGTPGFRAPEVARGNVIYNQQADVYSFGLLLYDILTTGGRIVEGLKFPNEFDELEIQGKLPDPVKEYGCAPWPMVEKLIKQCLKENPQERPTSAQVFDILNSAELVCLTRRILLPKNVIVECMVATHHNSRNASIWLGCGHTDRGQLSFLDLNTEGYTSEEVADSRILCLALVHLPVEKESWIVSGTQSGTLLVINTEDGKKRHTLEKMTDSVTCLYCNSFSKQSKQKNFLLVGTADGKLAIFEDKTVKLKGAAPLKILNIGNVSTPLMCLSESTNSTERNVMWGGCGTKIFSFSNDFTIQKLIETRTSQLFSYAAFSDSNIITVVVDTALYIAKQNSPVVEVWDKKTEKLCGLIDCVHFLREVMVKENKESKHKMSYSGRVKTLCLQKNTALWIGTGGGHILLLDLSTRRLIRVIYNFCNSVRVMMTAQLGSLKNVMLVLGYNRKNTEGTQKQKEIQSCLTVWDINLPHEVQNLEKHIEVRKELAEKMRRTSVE

[26] = target: Dual specificity tyrosine-phosphorylation-regulated kinase 1B (Homo sapiens, UniProt Q9Y463); assay: Navigating the Kinome. Panel member name: DYRK1B
[27] = target: Tyrosine-protein kinase Fyn (Homo sapiens, UniProt P06241)
[28] = target: Serine/threonine-protein kinase pim-2 (Homo sapiens, UniProt Q9P1W9);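 note: value comes from a broad kinase panel profiling study in which PIM2 was one of the panel members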
[29] = target: Vascular endothelial growth factor receptor 1 (Homo sapiens, UniProt P17948);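 note: measured within a kinome-wide profiling panel, FLT1 as the panel member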
[30] = target: Tyrosine-protein kinase ABL1 (Homo sapiens, UniProt P00519)
[31] = target: Tyrosine-protein kinase Blk (Homo sapiens, UniProt P51451);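 note: obtained as one member of a kinome-wide kinase assay panel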
[32] = target: Dual specificity protein kinase CLK4 (Homo sapiens, UniProt Q9HAZ1)
[33] = target: cAMP-dependent protein kinase catalytic subunit alpha (Homo sapiens, UniProt P17612)
[34] = target: Mitogen-activated protein kinase 1 (Homo sapiens, UniProt P28482)
[35] = target: Proto-oncogene tyrosine-protein kinase ROS (Homo sapiens, UniProt P08922);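 note: ROS1 tested as one member of a kinome-wide kinase panel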
[36] = target: Cyclin-dependent kinase 1 (Homo sapiens, UniProt P06493);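 note: Kinome-wide panel profiling, with the target listed as panel member CDC2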

CCSc1ccc([C@@H]2[C@H]3C(=O)N(CC)C(=O)[C@H]3[C@]3(C(=O)OC)CCCCN23)cc1OC
IC50 [1]: > 49.8 µM (inactive) | IC50 (Orexin receptor type 2 [2]): > 50 µM (inactive) | IC50 (CHO-K1): > 66.3 µM (inactive) | IC50 [3]: 2.65 µM (active) | IC50 (Orexin receptor type 2 [4]): 6.4 µM (active) | IC50 [5]: 12.4 µM (inactive)

CCCCOc1ccc(C(C)(C)CC)cc1S(=O)(=O)Nc1ccc(-c2csc3ncnc(N)c23)cc1
Ki [6]: 3.98 µM (active) | Ki (Aurora kinase B): 6.31 µM (active) | Ki [7]: 6.31 µM (active) | Ki [8]: 6.31 µM (active) | Ki [9]: 2 µM (active) | Ki [10]: 7.94 µM (active)

COc1cccc(-n2nc(C)c3c(=O)c4cc(Cl)ccc4n(O)c32)c1
Ki (SRSF protein kinase 1): 7.94 µM (active) | Ki (Aurora kinase B): 1.26 µM (active) | Ki [11]: 6.31 µM (active)

O=S(=O)(c1cccc2cnccc12)N1CCCNCC1 [FASUDIL]
Ki [12]: > 1.58 µM (inactive) | Ki [13]: > 1.26 µM (inactive) | Ki [14]: > 1.58 µM (inactive) | Ki [15]: > 5.01 µM (inactive) | Ki [16]: > 7.94 µM (inactive) | Ki [17]: > 1.58 µM (inactive) | Ki [18]: > 1.58 µM (inactive) | Ki [19]: > 2 µM (inactive) | Ki [20]: > 1.58 µM (inactive) | Ki (Activin receptor type-1): > 3.98 µM (inactive) | Ki [21]: > 2 µM (inactive) | Ki [22]: > 1 µM (inactive) | Ki (Aurora kinase A): > 1.58 µM (inactive) | Ki [23]: > 5.01 µM (inactive) | Ki [24]: 1.26 µM (active) | pKi [24]: 5.9 | Ki [25]: 2 µM (active) | pKi [25]: 5.7 | Ki [26]: > 1.26 µM (inactive) | Ki [27]: > 794 nM (inactive) | Ki [28]: > 1.58 µM (inactive) | Ki [29]: > 398 nM (inactive) | Ki [30]: > 631 nM (inactive) | Ki [31]: > 1.58 µM (inactive)

CN(c1ncccc1CNc1nc(Nc2ccc3c(c2)CC(=O)N3)ncc1C(F)(F)F)S(C)(=O)=O [PF-00562271]
Ki [32]: 63.1 nM (active) | Ki [16]: > 7.94 µM (inactive) | Ki [33]: 158 nM (active) | Ki (Aurora kinase B): 0.0631 µM (active) | Ki [34]: 63.1 nM (active) | Ki [35]: 12.6 nM (active) | Ki [36]: 63.1 nM (active) | Ki [25]: 0.158 µM (active)
